Columns and labels:
Assay in all cases: Test E greenhouse herbicide test, pre- and postemergence
Type in all cases: in vivo
[1] = test system: Italian ryegrass (Lolium multiflorum)
Summary of the method: (§1)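 Visual rating vs untreated controls, 0 = no effect, 100 = complete control, after 14–21 d greenhouse. Pre: seeded silt loam treated with surfactant-containing solvent formulation. Post: 1–4-leaf plants (2–18 cm) in peat/vermiculite medium.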

[2] = test system: barnyardgrass (Echinochloa crus-galli)
Summary of the method: as §1

[3] = test system: beggarticks (hairy beggarticks, Bidens pilosa)
Summary of the method: as §1

[4] = test system: foxtail, green (green foxtail, Setaria viridis); conditions: Preemergence
Summary of the method: as §1

kochia (Kochia scoparia) = test system: kochia (Kochia scoparia)
Summary of the method: as §1

[5] = test system: lambsquarters (Chenopodium album); conditions: Preemergence
Summary of the method: as §1

[6] = test system: nutsedge, yellow (yellow nutsedge, Cyperus esculentus); conditions: Preemergence
Summary of the method: as §1

[7] = test system: panicum, fall (fall panicum, Panicum dichotomiflorum)
Summary of the method: as §1

[8] = test system: sandbur (southem sandbur, Cenchrus echinatus)
Summary of the method: as §1

soybean (Glycine max) = test system: soybean (Glycine max)
Summary of the method: as §1

[9] = 62 g ai/ha, Postemergence, scale 0 to 100 (0 no effect, 100 complete control)
[10] = 62 g ai/ha, Preemergence, scale 0 to 100 (0 no effect, 100 complete control)
[11] = 125 g ai/ha, Postemergence, scale 0 to 100 (0 no effect, 100 complete control)
[12] = 125 g ai/ha, Preemergence, scale 0 to 100 (0 no effect, 100 complete control)
[13] = 250 g ai/ha, Postemergence, scale 0 to 100 (0 no effect, 100 complete control)
[14] = Postemergence, 31 g ai/ha, visual, scale 0 no effect to 100 complete control
[15] = Preemergence, 31 g ai/ha, scale 0 to 100, 0 no effect, 100 complete control
[16] = Preemergence, 250 g ai/ha, visual, scale 0 no effect to 100 complete control
[17] = Preemergence, 125 g ai/ha, visual, scale 0 no effect to 100 complete control
[18] = 62 g ai/ha, scale 0 to 100 (0 no effect, 100 complete control)
[19] = 31 g ai/ha, scale 0 to 100, 0 no effect, 100 complete control
[20] = 125 g ai/ha, visual, scale 0 no effect to 100 complete control
[21] = 250 g ai/ha, visual, scale 0 no effect to 100 complete control
[22] = 125 g ai/ha, scale 0 to 100 (0 no effect, 100 complete control)

CC(=O)Oc1c(C)nn(C)c(=O)c1-c1c(C)sc2ccc(C)cc12 [Compound 25]
80: Plant response rating, Ryegrass, Italian [1, 9] | Plant response rating, Kochia (kochia (Kochia scoparia); [10]) | Plant response rating, Panicum, Fall [7, 11] | Plant response rating, Sandbur [8, 12]
35: Plant response rating, Sandbur [8, 15]
95: Plant response rating, Ryegrass, Italian [1, 10] | Plant response rating, Ryegrass, Italian [1, 15] | Plant response rating, Kochia (kochia (Kochia scoparia); [9]) | Plant response rating, Panicum, Fall [7, 15]
20: Plant response rating, Barnyardgrass [2, 15] | Plant response rating, Kochia (kochia (Kochia scoparia); [15]) | Plant response rating, Nutsedge, Yellow [6, 18] | Plant response rating, Nutsedge, Yellow [6, 22] | Plant response rating, Soybean (soybean (Glycine max); [9])
98: Plant response rating, Ryegrass, Italian [1, 12] | Plant response rating, Foxtail, Green [4, 18] | Plant response rating, Foxtail, Green [4, 20] | Plant response rating, Kochia (kochia (Kochia scoparia); [13]) | Plant response rating, Kochia (kochia (Kochia scoparia); [17]) | Plant response rating, Lambsquarters [5, 19]
75: Plant response rating, Ryegrass, Italian [1, 14] | Plant response rating, Sandbur [8, 13] | Plant response rating, Soybean (soybean (Glycine max); [13])
100: Plant response rating, Ryegrass, Italian [1, 16] | Plant response rating, Beggarticks [3, 9] | Plant response rating, Beggarticks [3, 10] | Plant response rating, Beggarticks [3, 11] | Plant response rating, Beggarticks [3, 13] | Plant response rating, Beggarticks [3, 14] | Plant response rating, Beggarticks [3, 15] | Plant response rating, Beggarticks [3, 17] | Plant response rating, Beggarticks [3, 16] | Plant response rating, Foxtail, Green [4, 21] | Plant response rating, Kochia (kochia (Kochia scoparia); [11]) | Plant response rating, Kochia (kochia (Kochia scoparia); [16]) | Plant response rating, Lambsquarters [5, 18] | Plant response rating, Lambsquarters [5, 20] | Plant response rating, Lambsquarters [5, 21] | Plant response rating, Panicum, Fall [7, 10] | Plant response rating, Panicum, Fall [7, 12] | Plant response rating, Panicum, Fall [7, 16]
60: Plant response rating, Barnyardgrass [2, 10] | Plant response rating, Barnyardgrass [2, 17] | Plant response rating, Sandbur [8, 9]
0: Plant response rating, Nutsedge, Yellow [6, 19] | Plant response rating, Soybean (soybean (Glycine max); [12]) | Plant response rating, Soybean (soybean (Glycine max); [14]) | Plant response rating, Soybean (soybean (Glycine max); [15])
50: Plant response rating, Barnyardgrass [2, 9] | Plant response rating, Barnyardgrass [2, 11] | Plant response rating, Barnyardgrass [2, 13] | Plant response rating, Panicum, Fall [7, 9] | Plant response rating, Panicum, Fall [7, 14] | Plant response rating, Sandbur [8, 14]
90: Plant response rating, Ryegrass, Italian [1, 13] | Plant response rating, Barnyardgrass [2, 16] | Plant response rating, Kochia (kochia (Kochia scoparia); [14]) | Plant response rating, Panicum, Fall [7, 13]
70: Plant response rating, Sandbur [8, 11] | Plant response rating, Soybean (soybean (Glycine max); [16])
65: Plant response rating, Foxtail, Green [4, 19] | Plant response rating, Nutsedge, Yellow [6, 21] | Plant response rating, Sandbur [8, 10]
40: Plant response rating, Barnyardgrass [2, 14]
30: Plant response rating, Soybean (soybean (Glycine max); [11])
85: Plant response rating, Ryegrass, Italian [1, 11] | Plant response rating, Sandbur [8, 16]

CC(=O)Oc1c(C)nn(C)c(=O)c1-c1c(C)cc(C)c2ccccc12 [Compound 153]
10: Plant response rating, Soybean (soybean (Glycine max); [11])
30: Plant response rating, Soybean (soybean (Glycine max); [12]) | Plant response rating, Soybean (soybean (Glycine max); [15])
60: Plant response rating, Sandbur [8, 11]
25: Plant response rating, Barnyardgrass [2, 14] | Plant response rating, Soybean (soybean (Glycine max); [13])
55: Plant response rating, Kochia (kochia (Kochia scoparia); [11])
40: Plant response rating, Barnyardgrass [2, 9] | Plant response rating, Kochia (kochia (Kochia scoparia); [15])
20: Plant response rating, Barnyardgrass [2, 15]
80: Plant response rating, Barnyardgrass [2, 13] | Plant response rating, Nutsedge, Yellow [6, 22] | Plant response rating, Sandbur [8, 15]
90: Plant response rating, Ryegrass, Italian [1, 9] | Plant response rating, Ryegrass, Italian [1, 11] | Plant response rating, Barnyardgrass [2, 16] | Plant response rating, Foxtail, Green [4, 22] | Plant response rating, Kochia (kochia (Kochia scoparia); [16]) | Plant response rating, Panicum, Fall [7, 9] | Plant response rating, Panicum, Fall [7, 11] | Plant response rating, Panicum, Fall [7, 13] | Plant response rating, Sandbur [8, 16]
100: Plant response rating, Ryegrass, Italian [1, 12] | Plant response rating, Ryegrass, Italian [1, 15] | Plant response rating, Ryegrass, Italian [1, 16] | Plant response rating, Beggarticks [3, 9] | Plant response rating, Beggarticks [3, 10] | Plant response rating, Beggarticks [3, 11] | Plant response rating, Beggarticks [3, 12] | Plant response rating, Beggarticks [3, 13] | Plant response rating, Beggarticks [3, 14] | Plant response rating, Beggarticks [3, 15] | Plant response rating, Beggarticks [3, 16] | Plant response rating, Lambsquarters [5, 22] | Plant response rating, Lambsquarters [5, 19] | Plant response rating, Lambsquarters [5, 21] | Plant response rating, Panicum, Fall [7, 12] | Plant response rating, Panicum, Fall [7, 15] | Plant response rating, Panicum, Fall [7, 16]
50: Plant response rating, Barnyardgrass [2, 10] | Plant response rating, Barnyardgrass [2, 11] | Plant response rating, Foxtail, Green [4, 19] | Plant response rating, Kochia (kochia (Kochia scoparia); [9]) | Plant response rating, Kochia (kochia (Kochia scoparia); [12]) | Plant response rating, Kochia (kochia (Kochia scoparia); [14]) | Plant response rating, Nutsedge, Yellow [6, 19] | Plant response rating, Sandbur [8, 14]
95: Plant response rating, Ryegrass, Italian [1, 13] | Plant response rating, Foxtail, Green [4, 21] | Plant response rating, Nutsedge, Yellow [6, 21]
0: Plant response rating, Soybean (soybean (Glycine max); [14])
85: Plant response rating, Ryegrass, Italian [1, 14] | Plant response rating, Panicum, Fall [7, 14] | Plant response rating, Sandbur [8, 12]
75: Plant response rating, Foxtail, Green [4, 18]
70: Plant response rating, Barnyardgrass [2, 12] | Plant response rating, Kochia (kochia (Kochia scoparia); [13]) | Plant response rating, Sandbur [8, 13]

Cc1cc(C)c2sc(C)c(-c3c(OC(=O)OCCCl)c(C)nn(C)c3=O)c2c1 [Compound 85]
50: Plant response rating, Ryegrass, Italian [1, 14] | Plant response rating, Sandbur [8, 10]
65: Plant response rating, Nutsedge, Yellow [6, 21]
98: Plant response rating, Kochia (kochia (Kochia scoparia); [16]) | Plant response rating, Panicum, Fall [7, 12]
90: Plant response rating, Beggarticks [3, 14] | Plant response rating, Beggarticks [3, 15] | Plant response rating, Sandbur [8, 16]
75: Plant response rating, Ryegrass, Italian [1, 11] | Plant response rating, Panicum, Fall [7, 9] | Plant response rating, Panicum, Fall [7, 14]
5: Plant response rating, Soybean (soybean (Glycine max); [11])
80: Plant response rating, Ryegrass, Italian [1, 10] | Plant response rating, Ryegrass, Italian [1, 13] | Plant response rating, Ryegrass, Italian [1, 15] | Plant response rating, Kochia (kochia (Kochia scoparia); [11]) | Plant response rating, Kochia (kochia (Kochia scoparia); [13]) | Plant response rating, Panicum, Fall [7, 11] | Plant response rating, Sandbur [8, 12]
100: Plant response rating, Ryegrass, Italian [1, 16] | Plant response rating, Beggarticks [3, 9] | Plant response rating, Beggarticks [3, 10] | Plant response rating, Beggarticks [3, 11] | Plant response rating, Beggarticks [3, 12] | Plant response rating, Beggarticks [3, 13] | Plant response rating, Beggarticks [3, 16] | Plant response rating, Foxtail, Green [4, 21] | Plant response rating, Lambsquarters [5, 18] | Plant response rating, Lambsquarters [5, 22] | Plant response rating, Lambsquarters [5, 21] | Plant response rating, Panicum, Fall [7, 16]
30: Plant response rating, Barnyardgrass [2, 9] | Plant response rating, Barnyardgrass [2, 12] | Plant response rating, Barnyardgrass [2, 13]
95: Plant response rating, Ryegrass, Italian [1, 12] | Plant response rating, Panicum, Fall [7, 13] | Plant response rating, Panicum, Fall [7, 15]
70: Plant response rating, Kochia (kochia (Kochia scoparia); [9]) | Plant response rating, Lambsquarters [5, 19] | Plant response rating, Sandbur [8, 11] | Plant response rating, Sandbur [8, 13]
0: Plant response rating, Barnyardgrass [2, 10] | Plant response rating, Barnyardgrass [2, 15] | Plant response rating, Foxtail, Green [4, 19] | Plant response rating, Kochia (kochia (Kochia scoparia); [10]) | Plant response rating, Kochia (kochia (Kochia scoparia); [12]) | Plant response rating, Kochia (kochia (Kochia scoparia); [15]) | Plant response rating, Sandbur [8, 15] | Plant response rating, Soybean (soybean (Glycine max); [10]) | Plant response rating, Soybean (soybean (Glycine max); [12]) | Plant response rating, Soybean (soybean (Glycine max); [14]) | Plant response rating, Soybean (soybean (Glycine max); [15]) | Plant response rating, Soybean (soybean (Glycine max); [16])
20: Plant response rating, Barnyardgrass [2, 11] | Plant response rating, Barnyardgrass [2, 14]
60: Plant response rating, Ryegrass, Italian [1, 9] | Plant response rating, Kochia (kochia (Kochia scoparia); [14])
85: Plant response rating, Panicum, Fall [7, 10]
40: Plant response rating, Sandbur [8, 14]
35: Plant response rating, Barnyardgrass [2, 16] | Plant response rating, Nutsedge, Yellow [6, 18] | Plant response rating, Nutsedge, Yellow [6, 22]
25: Plant response rating, Foxtail, Green [4, 18]
15: Plant response rating, Foxtail, Green [4, 22] | Plant response rating, Soybean (soybean (Glycine max); [13])
